Measured values reported in PubChem BioAssay AID248 (DTP/NCI, 2004).
Where “and” joins values, the source holds several entries; their conditions need not be identical. Equal entries are not always repeated. Inconclusive results and toxic doses are left out.

Test system: L1210 leukemia ip in BDF1 mice, survival T/C
Assay: NCI In Vivo Anticancer Drug Screen. Data for tumor model L1210 Leukemia (intraperitoneal) in B6D2F1 (BDF1) mice
Conditions: endpoint: mean survival time, higher = longer survival
Procedure, shortened: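 Antitumor effect is assessed in tumor-bearing animals. Survival in the compound arm is compared with a vehicle-dosed control arm and expressed as their quotient.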

With `O=C(Nc1ccc(C2=NCCN2)cc1)c1ccc(C(=O)Nc2ccc(C3=NCCN3)cc2)cc1` the T/C (dose: 0.62 mg/kg/injection, schedule: Q#A X Z (ip), vehicle: saline) was 114 % of control, the T/C (dose: 0.63 mg/kg/injection, schedule: Q01DX Z (sc), vehicle: saline) was 104 % of control and the T/C (dose: 1.25 mg/kg/injection, schedule: Q01DX Z (ip), vehicle: other) was 287 % of control. The T/C (dose: 1.25 mg/kg/injection, schedule: Q01DX Z (sc), vehicle: saline) was 101 % of control, the T/C (dose: 1.87 mg/kg/injection, schedule: Q01DX Z (ip), vehicle: carboxymethylcellulose (CMC)) was 112 % of control and the T/C (dose: 1.88 mg/kg/injection, schedule: Q03DX Z (ip), vehicle: saline) was 103 % of control. For the same compound, the T/C (dose: 2.5 mg/kg/injection, schedule: Q01DX Z (ip), vehicle: other) was 158 % of control, the T/C (dose: 2.5 mg/kg/injection, schedule: Q01DX Z (sc), vehicle: saline) was 104 % of control and the T/C (dose: 3.75 mg/kg/injection, schedule: Q01DX Z (ip), vehicle: carboxymethylcellulose (CMC)) was 121 % of control. For the same compound, the T/C (dose: 3.75 mg/kg/injection, schedule: Q03DX Z (ip), vehicle: saline) was 114 % of control, the T/C (dose: 4.4 mg/kg/injection, schedule: Q01DX001 (ip), vehicle: saline) was 103 % of control and the T/C (dose: 4.4 mg/kg/injection, schedule: Q07DX Z (ip), vehicle: saline) was 103 % of control. The T/C (dose: 5.0 mg/kg/injection, schedule: Q01DX005 (iv), vehicle: saline) was 102 % of control, the T/C (dose: 5.0 mg/kg/injection, schedule: Q01DX Z (ip), vehicle: acid diluted with saline) was 243 % of control and the T/C (dose: 5.0 mg/kg/injection, schedule: Q01DX Z (ip), vehicle: other) was 179 % of control. For the same compound, the T/C (dose: 5.0 mg/kg/injection, schedule: Q01DX Z (sc), vehicle: saline) was 101 % of control, the T/C (dose: 5.0 mg/kg/injection, schedule: Q#A X Z (ip), vehicle: saline) was 194 % of control and the T/C (dose: 7.5 mg/kg/injection, schedule: Q03DX Z (ip), vehicle: saline) was 115 % of control. The T/C (dose: 8.8 mg/kg/injection, schedule: Q01DX001 (ip), vehicle: saline) was 97 % of control and 112 % of control, the T/C (dose: 8.8 mg/kg/injection, schedule: Q07DX Z (ip), vehicle: saline) was 105 % of control and the T/C (dose: 10.0 mg/kg/injection, schedule: Q01DX005 (iv), vehicle: saline) was 103 % of control. The T/C (dose: 10.0 mg/kg/injection, schedule: Q01DX Z (ip), vehicle: acid diluted with saline) was 205 % of control, the T/C (dose: 10.0 mg/kg/injection, schedule: Q01DX Z (iv), vehicle: acid diluted with saline) was 123 % of control and the T/C (dose: 10.0 mg/kg/injection, schedule: Q01DX Z (sc), vehicle: acid diluted with saline) was 175 % of control. For the same compound, the T/C (dose: 10.0 mg/kg/injection, schedule: Q#A X Z (ip), vehicle: saline) was 291 % of control, the T/C (dose: 15.0 mg/kg/injection, schedule: Q01DX Z (ip), vehicle: carboxymethylcellulose (CMC)) was 168 % of control and 269 % of control and 197 % of control and the T/C (dose: 15.6 mg/kg/injection, schedule: Q01DX Z (sc), vehicle: other) was 181 % of control. For the same compound, the T/C (dose: 17.5 mg/kg/injection, schedule: Q01DX001 (ip), vehicle: saline) was 112 % of control and 264 % of control, the T/C (dose: 20.0 mg/kg/injection, schedule: Q01DX005 (iv), vehicle: saline) was 115 % of control and the T/C (dose: 20.0 mg/kg/injection, schedule: Q01DX Z (ip), vehicle: acid diluted with saline) was 158 % of control. For the same compound, the T/C (dose: 20.0 mg/kg/injection, schedule: Q01DX Z (ip), vehicle: saline) was 316 % of control, the T/C (dose: 20.0 mg/kg/injection, schedule: Q01DX Z (sc), vehicle: acid diluted with saline) was 165 % of control and the T/C (dose: 20.0 mg/kg/injection, schedule: Q#A X Z (ip), vehicle: saline) was 178 % of control. For the same compound, the T/C (dose: 30.0 mg/kg/injection, schedule: Q01DX Z (ip), vehicle: acid diluted with saline) was 182 % of control, the T/C (dose: 30.0 mg/kg/injection, schedule: Q01DX Z (ip), vehicle: carboxymethylcellulose (CMC)) was 320 % of control and the T/C (dose: 30.0 mg/kg/injection, schedule: Q03DX Z (ip), vehicle: saline) was 200 % of control. For the same compound, the T/C (dose: 31.3 mg/kg/injection, schedule: Q01DX004 (im), vehicle: olive oil, sesame oil, peanut oil) was 97 % of control, the T/C (dose: 31.3 mg/kg/injection, schedule: Q01DX004 (im), vehicle: saline) was 104 % of control and the T/C (dose: 31.3 mg/kg/injection, schedule: Q01DX Z (ip), vehicle: other) was 112 % of control. The T/C (dose: 31.3 mg/kg/injection, schedule: Q01DX Z (sc), vehicle: other) was 195 % of control, the T/C (dose: 35.0 mg/kg/injection, schedule: Q07DX Z (ip), vehicle: saline) was 160 % of control and the T/C (dose: 40.0 mg/kg/injection, schedule: Q01DX Z (ip), vehicle: saline) was 348 % of control. The T/C (dose: 40.0 mg/kg/injection, schedule: Q#A X Z (ip), vehicle: saline) was 210 % of control, the T/C (dose: 60.0 mg/kg/injection, schedule: Q01DX Z (ip), vehicle: acid diluted with saline) was 153 % of control and the T/C (dose: 60.0 mg/kg/injection, schedule: Q01DX Z (ip), vehicle: carboxymethylcellulose (CMC)) was 246 % of control. The T/C (dose: 60.0 mg/kg/injection, schedule: Q03DX Z (ip), vehicle: saline) was 304 % of control, the T/C (dose: 62.5 mg/kg/injection, schedule: Q01DX004 (im), vehicle: olive oil, sesame oil, peanut oil) was 100 % of control and the T/C (dose: 62.5 mg/kg/injection, schedule: Q01DX Z (ip), vehicle: other) was 111 % of control. For the same compound, the T/C (dose: 62.5 mg/kg/injection, schedule: Q01DX Z (sc), vehicle: other) was 158 % of control, the T/C (dose: 70.0 mg/kg/injection, schedule: Q01DX001 (ip), vehicle: saline) was 156 % of control and 161 % of control and the T/C (dose: 70.0 mg/kg/injection, schedule: Q07DX Z (ip), vehicle: saline) was 205 % of control. For the same compound, the T/C (dose: 80.0 mg/kg/injection, schedule: Q01DX Z (ip), vehicle: saline) was 183 % of control, the T/C (dose: 80.0 mg/kg/injection, schedule: Q#A X Z (ip), vehicle: saline) was 210 % of control and the T/C (dose: 120.0 mg/kg/injection, schedule: Q01DX Z (ip), vehicle: acid diluted with saline) was 176 % of control. For the same compound, the T/C (dose: 120.0 mg/kg/injection, schedule: Q01DX Z (ip), vehicle: carboxymethylcellulose (CMC)) was 115 % of control and 204 % of control, the T/C (dose: 120.0 mg/kg/injection, schedule: Q03DX Z (ip), vehicle: saline) was 243 % of control and 252 % of control and the T/C (dose: 125.0 mg/kg/injection, schedule: Q01DX004 (im), vehicle: olive oil, sesame oil, peanut oil) was 100 % of control. The T/C (dose: 125.0 mg/kg/injection, schedule: Q01DX Z (ip), vehicle: other) was 97 % of control, the T/C (dose: 125.0 mg/kg/injection, schedule: Q01DX Z (sc), vehicle: other) was 161 % of control and the T/C (dose: 140.0 mg/kg/injection, schedule: Q01DX001 (ip), vehicle: saline) was 223 % of control. The T/C (dose: 140.0 mg/kg/injection, schedule: Q07DX Z (ip), vehicle: saline) was 282 % of control, the T/C (dose: 160.0 mg/kg/injection, schedule: Q01DX Z (ip), vehicle: saline) was 174 % of control and the T/C (dose: 160.0 mg/kg/injection, schedule: Q#A X Z (ip), vehicle: saline) was 176 % of control. The T/C (dose: 250.0 mg/kg/injection, schedule: Q01DX004 (im), vehicle: olive oil, sesame oil, peanut oil) was 121 % of control, the T/C (dose: 250.0 mg/kg/injection, schedule: Q01DX004 (im), vehicle: saline) was 204 % of control and 208 % of control and the T/C (dose: 250.0 mg/kg/injection, schedule: Q01DX Z (sc), vehicle: other) was 168 % of control. For the same compound, the T/C (dose: 250.0 mg/kg/injection, schedule: Q01DX Z (sc), vehicle: saline) was 217 % of control, the T/C (dose: 280.0 mg/kg/injection, schedule: Q07DX Z (ip), vehicle: saline) was 250 % of control and 327 % of control and the T/C (dose: 320.0 mg/kg/injection, schedule: Q01DX Z (ip), vehicle: saline) was 162 % of control. For the same compound, the T/C (dose: 480.0 mg/kg/injection, schedule: Q03DX Z (ip), vehicle: saline) was 194 % of control, the T/C (dose: 500.0 mg/kg/injection, schedule: Q01DX004 (im), vehicle: saline) was 262 % of control and the T/C (dose: 500.0 mg/kg/injection, schedule: Q01DX Z (sc), vehicle: saline) was 195 % of control. The T/C (dose: 560.0 mg/kg/injection, schedule: Q01DX001 (ip), vehicle: saline) was 184 % of control and 210 % of control, the T/C (dose: 560.0 mg/kg/injection, schedule: Q07DX Z (ip), vehicle: saline) was 261 % of control and the T/C (dose: 640.0 mg/kg/injection, schedule: Q01DX Z (ip), vehicle: saline) was 124 % of control. For the same compound, the T/C (dose: 750.0 mg/kg/injection, schedule: Q01DX Z (sc), vehicle: saline) was 183 % of control and 290 % of control, the T/C (dose: 960.0 mg/kg/injection, schedule: Q03DX Z (ip), vehicle: saline) was 164 % of control and the T/C (dose: 1000.0 mg/kg/injection, schedule: Q01DX004 (im), vehicle: saline) was 267 % of control. For the same compound, the T/C (dose: 1112.0 mg/kg/injection, schedule: Q01DX001 (ip), vehicle: saline) was 157 % of control, the T/C (dose: 1500.0 mg/kg/injection, schedule: Q01DX Z (sc), vehicle: saline) was 215 % of control and the T/C (dose: 18.8 micrograms/kg/injection, schedule: Q01DX Z (ip), vehicle: saline) was 96 % of control. The T/C (dose: 37.5 micrograms/kg/injection, schedule: Q01DX Z (ip), vehicle: saline) was 96 % of control, the T/C (dose: 75.0 micrograms/kg/injection, schedule: Q01DX Z (ip), vehicle: saline) was 100 % of control and the T/C (dose: 150.0 micrograms/kg/injection, schedule: Q01DX Z (ip), vehicle: saline) was 94 % of control. The T/C (dose: 230.0 micrograms/kg/injection, schedule: Q01DX Z (ip), vehicle: carboxymethylcellulose (CMC)) was 98 % of control, the T/C (dose: 460.0 micrograms/kg/injection, schedule: Q01DX Z (ip), vehicle: carboxymethylcellulose (CMC)) was 118 % of control and the T/C (dose: 930.0 micrograms/kg/injection, schedule: Q01DX Z (ip), vehicle: carboxymethylcellulose (CMC)) was 113 % of control.
